Assay results as given in PubChem BioAssay AID2060496 (Molecular Pharmacology Branch, DTP, NCI, 2025).

Test system: 276233-004-R-J1-PDC complex spheroid viability
Assay: Anticancer human tumor 276233-004-R-J1-PDC patient-derived colon adenocarcinoma cell line growth inhibition [GQUAD]
Settings: for IC50: curve of first compound; for viability, T/C: stronger effect = lower value
Summary of the method: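 Viability of tumor cells grown as complex spheroids with endothelial and stromal cells, exposed to drug combinations. Top concentration at or near clinical Cmax (else 10 microM), diluted in half-log increments.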

[1] = second compound 0.0316 µM, first compound 0.0316 µM
[2] = second compound 0.0316 µM, first compound 0.1 µM
[3] = second compound 0.0316 µM, first compound 0.316 µM
[4] = second compound 0.0316 µM, first compound 1 µM
[5] = second compound 0.0316 µM, first compound 3.16 µM
[6] = second compound 0.0316 µM, first compound 10 µM
[7] = second compound 0.1 µM, first compound 0.0316 µM
[8] = second compound 0.1 µM, first compound 0.1 µM
[9] = second compound 0.1 µM, first compound 0.316 µM
[10] = second compound 0.1 µM, first compound 1 µM
[11] = second compound 0.1 µM, first compound 3.16 µM
[12] = second compound 0.1 µM, first compound 10 µM
[13] = second compound 0.316 µM, first compound 0.0316 µM
[14] = second compound 0.316 µM, first compound 0.1 µM
[15] = second compound 0.316 µM, first compound 0.316 µM
[16] = second compound 0.316 µM, first compound 1 µM
[17] = second compound 0.316 µM, first compound 3.16 µM
[18] = second compound 0.316 µM, first compound 10 µM
[19] = second compound 1 µM, first compound 0.0316 µM
[20] = second compound 1 µM, first compound 0.1 µM
[21] = second compound 1 µM, first compound 0.316 µM
[22] = second compound 1 µM, first compound 1 µM
[23] = second compound 1 µM, first compound 3.16 µM
[24] = second compound 1 µM, first compound 10 µM
[25] = second compound 3.16 µM, first compound 0.0316 µM
[26] = second compound 3.16 µM, first compound 0.1 µM
[27] = second compound 3.16 µM, first compound 0.316 µM
[28] = second compound 3.16 µM, first compound 1 µM
[29] = second compound 3.16 µM, first compound 3.16 µM
[30] = second compound 3.16 µM, first compound 10 µM
[31] = second compound 10 µM, first compound 0.0316 µM
[32] = second compound 10 µM, first compound 0.1 µM
[33] = second compound 10 µM, first compound 0.316 µM
[34] = second compound 10 µM, first compound 1 µM
[35] = second compound 10 µM, first compound 3.16 µM
[36] = second compound 10 µM, first compound 10 µM
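Note: spheroids exposed to drugs for seven days.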
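Throughout, for viability, T/C: 100% = DMSO vehicle control viability.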

## COc1ncnc(C2CC2)c1-c1ncc2cnn(Cc3ccc(-c4nc(C(F)(F)F)cn4C(C)C)cc3)c2n1 + CN(C)c1ccc(Nc2c3ccc(NC(=O)CCN4CCCC4)cc3nc3cc(NC(=O)CCN4CCCC4)ccc23)cc1
Second compound 0.0316 µM
  IC50: > 10 µM
Second compound 0.1 µM
  IC50: > 10 µM
Second compound 0.316 µM
  IC50: > 10 µM
Second compound 1 µM
  IC50: 0.0316 µM
Second compound 3.16 µM
  IC50: < 0.0316 µM
Second compound 10 µM
  IC50: < 0.0316 µM
[1]
  viability, T/C: 87.4%
[2]
  viability, T/C: 84.2%
[3]
  viability, T/C: 74.3%
[4]
  viability, T/C: 75.6%
[5]
  viability, T/C: 68.8%
[6]
  viability, T/C: 100%
[7]
  viability, T/C: 70.4%
[8]
  viability, T/C: 90.2%
[9]
  viability, T/C: 77.5%
[10]
  viability, T/C: 75.8%
[11]
  viability, T/C: 58.6%
[12]
  viability, T/C: 65.8%
[13]
  viability, T/C: 69.4%
[14]
  viability, T/C: 72.7%
[15]
  viability, T/C: 59.9%
[16]
  viability, T/C: 44%
[17]
  viability, T/C: 69.4%
[18]
  viability, T/C: 72.5%
[19]
  viability, T/C: 57.3%
[20]
  viability, T/C: 49.6%
[21]
  viability, T/C: 51.4%
[22]
  viability, T/C: 47%
[23]
  viability, T/C: 65.3%
[24]
  viability, T/C: 68.5%
[25]
  viability, T/C: 53.2%
[26]
  viability, T/C: 35.7%
[27]
  viability, T/C: 53.1%
[28]
  viability, T/C: 49.5%
[29]
  viability, T/C: 56.7%
[30]
  viability, T/C: 57.6%
[31]
  viability, T/C: 35.6%
[32]
  viability, T/C: 41.8%
[33]
  viability, T/C: 36.7%
[34]
  viability, T/C: 38.4%
[35]
  viability, T/C: 58.4%
[36]
  viability, T/C: 53.5%

## CC(C)n1c(=O)n(C)c2cnc3cc(F)c(-c4ccc(OCCCN5CCCCC5)nc4)cc3c21 + Cc1[nH]c2ccc(F)cc2c1-c1nc2c3cccnc3c3ncccc3c2[nH]1
Second compound 0.0316 µM
  IC50: > 10 µM
Second compound 0.1 µM
  IC50: > 10 µM
Second compound 0.316 µM
  IC50: > 10 µM
Second compound 1 µM
  IC50: > 10 µM
Second compound 3.16 µM
  IC50: 3.22 µM
Second compound 10 µM
  IC50: < 0.0316 µM
[1]
  viability, T/C: 98.8%
[2]
  viability, T/C: 86.7%
[3]
  viability, T/C: 110%
[4]
  viability, T/C: 80.8%
[5]
  viability, T/C: 103%
[6]
  viability, T/C: 82.9%
[7]
  viability, T/C: 90.9%
[8]
  viability, T/C: 88.7%
[9]
  viability, T/C: 85%
[10]
  viability, T/C: 100%
[11]
  viability, T/C: 78.2%
[12]
  viability, T/C: 84.8%
[13]
  viability, T/C: 88.1%
[14]
  viability, T/C: 94.3%
[15]
  viability, T/C: 79%
[16]
  viability, T/C: 94.2%
[17]
  viability, T/C: 104%
[18]
  viability, T/C: 87.8%
[19]
  viability, T/C: 72.8%
[20]
  viability, T/C: 73.3%
[21]
  viability, T/C: 82.2%
[22]
  viability, T/C: 70.1%
[23]
  viability, T/C: 80.8%
[24]
  viability, T/C: 69.7%
[25]
  viability, T/C: 52%
[26]
  viability, T/C: 49.2%
[27]
  viability, T/C: 55%
[28]
  viability, T/C: 45.8%
[29]
  viability, T/C: 50.9%
[30]
  viability, T/C: 26.8%
[31]
  viability, T/C: 48.7%
[32]
  viability, T/C: 47%
[33]
  viability, T/C: 54.9%
[34]
  viability, T/C: 42%
[35]
  viability, T/C: 47%
[36]
  viability, T/C: 21.7%

## CC1COCCN1c1cc(-c2ccnn2C)c2ccnc(-c3ccn[nH]3)c2n1 (stereo unspecified) + Cc1[nH]c2ccc(F)cc2c1-c1nc2c3cccnc3c3ncccc3c2[nH]1
Second compound 0.0316 µM
  IC50: > 10 µM
Second compound 0.1 µM
  IC50: > 10 µM
Second compound 0.316 µM
  IC50: > 10 µM
Second compound 1 µM
  IC50: 7.21 µM
Second compound 3.16 µM
  IC50: < 0.0316 µM
Second compound 10 µM
  IC50: < 0.0316 µM
[1]
  viability, T/C: 84.6%
[2]
  viability, T/C: 69.4%
[3]
  viability, T/C: 87%
[4]
  viability, T/C: 70.5%
[5]
  viability, T/C: 57.9%
[6]
  viability, T/C: 56.3%
[7]
  viability, T/C: 76.1%
[8]
  viability, T/C: 68%
[9]
  viability, T/C: 68.9%
[10]
  viability, T/C: 60%
[11]
  viability, T/C: 68.1%
[12]
  viability, T/C: 55.3%
[13]
  viability, T/C: 90.5%
[14]
  viability, T/C: 87.7%
[15]
  viability, T/C: 71.2%
[16]
  viability, T/C: 60.3%
[17]
  viability, T/C: 57%
[18]
  viability, T/C: 59.7%
[19]
  viability, T/C: 89.3%
[20]
  viability, T/C: 86.6%
[21]
  viability, T/C: 65.4%
[22]
  viability, T/C: 60.8%
[23]
  viability, T/C: 57.6%
[24]
  viability, T/C: 46.2%
[25]
  viability, T/C: 48.1%
[26]
  viability, T/C: 48.5%
[27]
  viability, T/C: 53.9%
[28]
  viability, T/C: 45.1%
[29]
  viability, T/C: 44.1%
[30]
  viability, T/C: 32.5%
[31]
  viability, T/C: 42%
[32]
  viability, T/C: 49.6%
[33]
  viability, T/C: 40.8%
[34]
  viability, T/C: 40.2%
[35]
  viability, T/C: 37.8%
[36]
  viability, T/C: 32.4%
